The text below walks through data of USRE29337E, “Dicarboxylic acid soaps” (priority 1976, dated 1977).

Series [1] can be described thus: Shampoo formulations, soap content (Example 9). It counts as physicochemical. To be noted: 99% solids. From the text:
A product similar to the liquid soaps in composition is shampoo. Basically, shampoos are simply perfumed soap solutions which need to lather easily and which have a fairly high soap content. Consequently, most shampoos consist from 50% to 100% of the solids as coconut fatty acid soaps. With such a formulation a viscous potassium soap of about 35% real soap (solids) can be prepared. If the triethanolamine soap is used, a 40% real soap may be formulated. As is obvious from the earlier discussion, C21 dicarboxylic acid soap would allow for greater flexibility in the amount of soap present in the shampoo and also allow for the utility of a lower priced cation, sodium.
An area closely related to the liquid soaps is shampoos. The formulations are similar but, since profuse sudsing is desired in shampoos and since low viscosity is not critical, the real soap content is more than twice as high. To get 35% soap in a formulation, coconut fatty acids or a blend of 50% coconut-50% oleic must be used. A 40% soap shampoo can be prepared using triethanolamine rather than potassium hydroxide to form the soap. […] C21 dicarboxylic acid has a major economic advantage in this application since sodium hydroxide could be used instead of potassium hydroxide.

For series [2] the following is noted: one-half of the carboxyl groups as carboxylate anions.
Description: Since each molecule of C21 dicarboxylic acid has two carboxyl groups of varying acidity it is possible to convert the most acidic of these to the soap and the molecule becomes water-soluble leaving a free acid group on each molecule. […] A soap solution of C21 dicarboxylic acid can be prepared at any pH above 6.5, so in the case of amine soaps one can prepare the soap in such a way as to have free acid groups rather than excess amine, so there is no amine odor.
Of course, these soaps all have a pH of about 6.7 and have one free carboxylic acid group in solution.
Since the C21 dicarboxylic acid has two acid groups of different strengths, it is very easy to prepare the mono or half soap of the diacid.
A short description of series [3]: Viscosity vs percentage real soap, Brookfield viscometer (Example 4, FIGURE). It counts as physicochemical. The source says: A property of the soaps which points up this solubility advantage of C21 dicarboxylic acid soap and which is also important for C21 dicarboxylic acid utility is the viscosity of the soap. […] The solubility of the various soaps may be illustrated by the viscosity of the soaps which is shown in the accompanying figure. […] The coconut fatty acid potassium soap is somewhat poorer than the C21 dicarboxylic acid soap since its viscosity goes above twenty centipoises at 30% real soap.
This example illustrates a comparison of viscosity changes with potassium solids. Liquid soaps of fatty acids must be fairly fluid for ease in dispensing and using them. Therefore, a measure of the change in viscosity of a soap solution as percentage soap present increases is an easy method for determining the concentration of soap that can be used. The curves in the accompanying FIGURE show this relationship. A Brookfield viscometer was used to determine these curves at 25° C. […] The fact that 50% oleic acid/50% coconut soap is required to obtain a viscosity of 20 cps. at 30% real soap; whereas only 25% C21 dicarboxylic acid soap/75% tall oil fatty acid is needed to reach the same viscosity level is typical of the significance of the C21 dicarboxylic acid soaps.

A short description of series [4]: Liquid soap formulations (Example 8). It counts as physicochemical. To be noted: for pH of formulation: liquid soap formulations, excess base kept very low; for compatibility of pine oil with soap formulation: pine oil at 3% addition; for state of liquid soap: sodium hydroxide substituted for potassium hydroxide. How it is done:
The formulation used was 12% coconut fatty acids, 3% soya or tall oil fatty acid, 4.4% KOH, 1% KCL, 80% water and a perfume as desired. In all of the soaps pine oil was added as the perfume at 3% addition.
The pine oil was compatible with the C21 dicarboxylic acid soap formulation. Of course, with C21 dicarboxylic acid soap much more concentrated, fluid soaps were prepared.
To further test the advantages of C21 dicarboxylic acid soap in liquid soaps, sodium hydroxide was substituted for the potassium hydroxide in each of the formulations mentioned above. […] In all of these formulations the excess base was kept at a very low level so that the pH's were about 9 for the C21 dicarboxylic acid and coconut fatty acid systems and about 11 for the oleic acid systems.

Series [5] is described as follows: Solubilities of various fatty acid soaps in water (Example 1). It counts as physicochemical. As for the experimental part: Likewise, just as the type of fatty acid used influences soap properties, so does the choice of neutralizing agent. Therefore, various available inorganic alkalis were also compared.
The procedure for making the fatty acid soaps was to dissolve the inorganic alkali in the prescribed amount of water, heating to 150° F. The fatty acid was slowly added to the alkali solution and agitated for a few minutes.

The conditions of series [6]: potassium soaps; cited from earlier work.
The format of series [7] is physicochemical. The source says: is often desirable when making liquid soaps, as well as toilet soaps, having tailored properties, to blend together various fatty acids to achieve desirable characteristics and lessen the undesirable ones.
Series [8] is described as follows: Amine soaps: dilution with water and gelling (Example 5). To be noted: triethylamine soap; diluted slowly with water, C21 soap down to 25% solids. It counts as physicochemical. How it is done:
The C21 dicarboxylic acid-amine soaps were also prepared using diethanolamine and monoethanol amine.

Series [9] is described as follows: Fluidity and gelling of soaps (general description). It counts as physicochemical. To be noted: potassium soap. The source says:
The C21 dicarboxylic acid soaps are made by neutralizing the C21 dicarboxylic acid. The neutralizing agent used is based on the solubility characteristics desired in the soap and economic considerations. The neutralizing agents contemplated include those of the following cations, sodium, potassium, lithium and ammonium. These cations may be obtained from such inorganic alkalis as caustic soda, caustic potash, and soda ash. Another cation which may be used is the ammonium cation. Organic amines may also be used, specifically amines such as triethylamine, monoethylamine, diethylamine, and alkanolamines, such as ethanolamine, triethanolamine and diethanolamine. The soaps made from the above listed neutralizing agents are all liquid at temperatures as low as 30° F.
For example, the potassium soap of oleic acid is a viscous fluid at about 18% solids and gels at 19%-20% solids. However, the potassium soap of oleic acid blended with 40% C21 dicarboxylic acid potassium soap is very fluid at 30 to 40% solids. This general characteristic of increased solubility is advantageous to all soap users for economy in shipping and handling. It also allows for cuts in production costs in applications where water is removed from the final product, since less water is added with the soap when a C21 dicarboxylic acid soap is used. […]

The mark [10] stands for this setting: cation K, 40 percent solids in water.

Turning to “5 carboxy-4-hexyl-2-cyclohexene-1-octanoic acid and 6 carboxy-4-hexyl-2 cyclohexene-1-octanoic acid [C21 dicarboxylic acid]”, the gelling result in [1] was “does not gel”. Moreover, the “water-solubility of partly neutralized acid” value in series [2] is “water-soluble”. Moreover, the “viscosity of blends with oleic acid soap and coconut soap” value in [3] was “low viscosity blends”. Moreover, the pH of formulation result in [4] is on record as “about 9”. Moreover, the “compatibility of pine oil with soap formulation” value in series [4] (listed as C21 dicarboxylic acid soap) is “compatible”; in [4] (listed as C21 dicarboxylic acid soaps), “very compatible”. Further, in [4] (sodium hydroxide formulation, storage), the precipitation entry is “no signs of precipitating after three months”. In addition, in series [4], the “state of liquid soap” value is recorded as “very fluid”. In series [5], the “water solubility compared with soaps of conventional fatty acids” value was “water soluble at higher solids content”. The Characteristics result in series [5] (cation K, 20 percent solids in water) was “Solution”; in [5] (cation K, 80 percent solids in water), “Viscous solution”; in series [5] (cation Li, 10 percent solids in water), “Solution”; in series [5] (cation Na, 20 percent solids in water) it was “Solution”; in series [5] (cation Na, 65 percent solids in water), “Viscous solution”.
In the case of `CCCCCCCCCC(=O)O` [Decanoic acid (C10), Decanoic acid], the “highest solids soaps that are still fluid at room temperature” value in [6] is 40%.
As to `CCCCCCCCCCCC(=O)O` [Lauric acid (C12), Lauric acid], the “highest solids soaps that are still fluid at room temperature” value in series [6] is recorded as 35%. The Characteristics result in [5] (cation K, 33 percent solids in water) is “Viscous solution”; in series [5] (cation K, 36 percent solids in water), “Gel”.
Regarding `CCCCCCCCC(=O)O` [Nonanoic acid (G9), Nonanoic acid], the Characteristics entry in series [5] (cation K, 35 percent solids in water) is recorded as “Viscous solution”; in series [5] (setting [10]), “Gel”.
Turning to `CCCCCCCC(=O)O` [Octanoic acid (C8), Octanoic acid], the “highest solids soaps that are still fluid at room temperature” value in series [6] is given as 45%. Besides, the Characteristics result in series [5] (setting [10]) is reported as “Viscous solution”; in series [5] (cation K, 45 percent solids in water), “Gel”.
Regarding `CCCCCCCC/C=C\CCCCCCCC(=O)O` [Vegetable derived oleic acid (C18), oleic acid], the “Characteristics at 25° C.” value in series [7] is listed as “Gel”.
For `CCCCCCCC/C=C\CCCCCCCC(=O)O` [oleic acid], the “gelling on dilution with water” value in series [8] is “a gel formed immediately upon the addition of water”. The “highest solids soaps that are still fluid at room temperature” value in series [6] was 20%. For the same compound, in [4], the pH of formulation entry is recorded as “about 11” and the “state of liquid soap” value was “gels”. Further, the “fluidity of liquid soap” value in series [4] (potassium hydroxide formulation, in place of coconut fatty acids) is “very viscous soap of questionable utility”.
Take `CCCCCCCC/C=C\CCCCCCCC(=O)O` [potassium soap of oleic acid]: the “percentage real soap at which viscosity exceeds twenty centipoises” value in [3] (potassium soap solution, 25° C.) worked out at 16 % real soap. In addition, in series [9], the “percent solids at which soap is a viscous fluid” value is given as “about 18 % solids”.
